Reference: ChEMBL document CHEMBL3627608, “Crystal structures of human RIP2 kinase catalytic domain complexed with ATP-competitive inhibitors: Foundations for understanding inhibitor selectivity” (Bioorg Med Chem, 2015)

Tests used:
[1] = target: T1, TGF-beta receptor type-1 (Homo sapiens) (UniProt P36897); test: Inhibition of ALK5 (unknown origin) at 10 uM after 120 mins P33 radiolabeled kinase activity assay
T1 sequence (whole entry): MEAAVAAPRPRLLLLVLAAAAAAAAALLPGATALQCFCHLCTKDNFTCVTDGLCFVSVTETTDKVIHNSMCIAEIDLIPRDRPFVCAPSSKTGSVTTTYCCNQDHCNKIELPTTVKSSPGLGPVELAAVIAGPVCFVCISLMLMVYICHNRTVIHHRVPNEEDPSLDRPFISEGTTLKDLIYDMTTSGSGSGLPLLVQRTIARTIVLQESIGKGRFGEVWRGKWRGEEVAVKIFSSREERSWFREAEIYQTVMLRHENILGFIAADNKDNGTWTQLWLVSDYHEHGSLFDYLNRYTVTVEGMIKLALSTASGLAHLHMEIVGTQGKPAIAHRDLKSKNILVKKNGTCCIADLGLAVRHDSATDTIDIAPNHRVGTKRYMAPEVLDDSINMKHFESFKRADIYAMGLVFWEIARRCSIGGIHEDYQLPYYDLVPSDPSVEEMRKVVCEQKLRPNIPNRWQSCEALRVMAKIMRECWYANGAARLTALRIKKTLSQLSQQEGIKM

[2] = target: Serine/threonine-protein kinase MARK2 (Homo sapiens) (UniProt Q7KZI7); test: Inhibition of MARK2 (unknown origin) at 10 uM after 120 mins P33 radiolabeled kinase activity assay
[3] = target: Serine/threonine-protein kinase N3 (Homo sapiens) (UniProt Q6P5Z2); test: Inhibition of PKN3 (unknown origin) at 10 uM after 120 mins P33 radiolabeled kinase activity assay
[4] = target: cAMP-dependent protein kinase catalytic subunit gamma (Homo sapiens) (UniProt P22612); test: Inhibition of PKAcgamma (unknown origin) at 10 uM after 120 mins P33 radiolabeled kinase activity assay
[5] = target: Protein-tyrosine kinase 6 (Homo sapiens) (UniProt Q13882); test: Inhibition of BRK (unknown origin) at 10 uM after 120 mins P33 radiolabeled kinase activity assay
[6] = target: CDK1/Cyclin A (Homo sapiens) (UniProt P06493+P20248); test: Inhibition of CDK1/cyclin A (unknown origin) at 10 uM after 120 mins P33 radiolabeled kinase activity assay; assay type: protein-complex assay
[7] = target: Casein kinase I isoform gamma-1 (Homo sapiens) (UniProt Q9HCP0); test: Inhibition of CK1gamma1 (unknown origin) at 10 uM after 120 mins P33 radiolabeled kinase activity assay
[8] = target: T2, Mitogen-activated protein kinase kinase kinase 5 (Homo sapiens) (UniProt Q99683); test: Inhibition of ASK1 (unknown origin) at 10 uM after 120 mins P33 radiolabeled kinase activity assay
T2 sequence (whole entry): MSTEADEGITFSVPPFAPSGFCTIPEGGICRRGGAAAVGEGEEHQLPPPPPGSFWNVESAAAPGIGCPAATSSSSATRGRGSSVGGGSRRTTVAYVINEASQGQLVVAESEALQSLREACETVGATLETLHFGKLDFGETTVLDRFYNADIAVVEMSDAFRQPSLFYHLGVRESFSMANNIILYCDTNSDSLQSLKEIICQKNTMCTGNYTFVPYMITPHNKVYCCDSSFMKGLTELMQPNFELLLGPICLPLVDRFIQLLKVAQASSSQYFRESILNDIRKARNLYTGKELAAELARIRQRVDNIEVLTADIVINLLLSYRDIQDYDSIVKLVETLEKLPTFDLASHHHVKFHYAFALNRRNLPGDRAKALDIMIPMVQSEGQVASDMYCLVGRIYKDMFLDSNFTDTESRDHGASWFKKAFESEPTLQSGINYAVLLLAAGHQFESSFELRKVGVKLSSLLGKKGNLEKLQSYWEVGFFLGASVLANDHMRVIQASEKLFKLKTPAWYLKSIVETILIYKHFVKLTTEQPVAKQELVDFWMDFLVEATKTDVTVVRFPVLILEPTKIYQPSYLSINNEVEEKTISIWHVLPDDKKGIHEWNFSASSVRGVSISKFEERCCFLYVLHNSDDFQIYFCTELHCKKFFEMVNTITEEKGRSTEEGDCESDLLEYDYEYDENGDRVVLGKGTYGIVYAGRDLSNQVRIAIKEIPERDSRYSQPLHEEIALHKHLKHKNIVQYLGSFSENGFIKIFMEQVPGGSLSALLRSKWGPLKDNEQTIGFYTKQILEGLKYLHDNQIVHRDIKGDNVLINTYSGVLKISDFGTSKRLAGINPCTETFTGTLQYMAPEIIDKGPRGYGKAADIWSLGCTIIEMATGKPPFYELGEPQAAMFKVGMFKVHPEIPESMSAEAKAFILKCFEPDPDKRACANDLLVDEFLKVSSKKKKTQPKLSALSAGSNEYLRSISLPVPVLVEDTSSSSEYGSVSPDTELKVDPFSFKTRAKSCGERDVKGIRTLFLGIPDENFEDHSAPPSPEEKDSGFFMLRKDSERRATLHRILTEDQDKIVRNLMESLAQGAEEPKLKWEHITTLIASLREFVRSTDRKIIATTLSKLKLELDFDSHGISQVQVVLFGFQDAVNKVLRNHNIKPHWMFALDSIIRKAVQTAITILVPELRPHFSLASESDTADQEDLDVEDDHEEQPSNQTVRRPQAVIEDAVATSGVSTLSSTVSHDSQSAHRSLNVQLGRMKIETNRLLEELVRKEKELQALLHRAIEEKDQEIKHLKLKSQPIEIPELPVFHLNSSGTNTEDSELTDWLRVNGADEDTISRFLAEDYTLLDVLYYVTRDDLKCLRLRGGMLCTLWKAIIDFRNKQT

Protein-tyrosine kinase 6 (Homo sapiens), sequence (Q13882 whole entry, looked up): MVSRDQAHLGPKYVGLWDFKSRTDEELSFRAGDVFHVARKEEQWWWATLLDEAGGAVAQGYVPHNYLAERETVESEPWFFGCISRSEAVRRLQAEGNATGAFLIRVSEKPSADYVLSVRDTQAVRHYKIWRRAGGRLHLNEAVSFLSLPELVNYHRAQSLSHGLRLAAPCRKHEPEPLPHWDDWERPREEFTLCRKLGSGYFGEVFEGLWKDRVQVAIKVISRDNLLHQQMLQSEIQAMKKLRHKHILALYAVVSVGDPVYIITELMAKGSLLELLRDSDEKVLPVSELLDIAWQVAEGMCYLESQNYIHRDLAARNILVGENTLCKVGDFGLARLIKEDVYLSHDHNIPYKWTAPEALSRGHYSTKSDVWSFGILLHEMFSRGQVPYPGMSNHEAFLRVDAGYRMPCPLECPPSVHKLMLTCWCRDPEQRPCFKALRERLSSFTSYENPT
Casein kinase I isoform gamma-1 (Homo sapiens), sequence (Q9HCP0 whole entry, looked up, canonical isoform): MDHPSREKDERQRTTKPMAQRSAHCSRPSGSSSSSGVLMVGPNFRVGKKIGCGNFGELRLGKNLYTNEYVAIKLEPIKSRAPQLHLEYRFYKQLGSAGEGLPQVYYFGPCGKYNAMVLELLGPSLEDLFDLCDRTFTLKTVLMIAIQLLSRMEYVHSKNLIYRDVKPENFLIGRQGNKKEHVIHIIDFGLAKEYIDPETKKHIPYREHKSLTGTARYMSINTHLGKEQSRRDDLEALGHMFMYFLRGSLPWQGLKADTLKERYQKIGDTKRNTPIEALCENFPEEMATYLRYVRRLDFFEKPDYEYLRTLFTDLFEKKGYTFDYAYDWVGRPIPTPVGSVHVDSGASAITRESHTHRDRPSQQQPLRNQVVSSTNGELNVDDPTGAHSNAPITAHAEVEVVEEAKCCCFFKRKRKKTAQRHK
Serine/threonine-protein kinase MARK2 (Homo sapiens), sequence (Q7KZI7 whole entry): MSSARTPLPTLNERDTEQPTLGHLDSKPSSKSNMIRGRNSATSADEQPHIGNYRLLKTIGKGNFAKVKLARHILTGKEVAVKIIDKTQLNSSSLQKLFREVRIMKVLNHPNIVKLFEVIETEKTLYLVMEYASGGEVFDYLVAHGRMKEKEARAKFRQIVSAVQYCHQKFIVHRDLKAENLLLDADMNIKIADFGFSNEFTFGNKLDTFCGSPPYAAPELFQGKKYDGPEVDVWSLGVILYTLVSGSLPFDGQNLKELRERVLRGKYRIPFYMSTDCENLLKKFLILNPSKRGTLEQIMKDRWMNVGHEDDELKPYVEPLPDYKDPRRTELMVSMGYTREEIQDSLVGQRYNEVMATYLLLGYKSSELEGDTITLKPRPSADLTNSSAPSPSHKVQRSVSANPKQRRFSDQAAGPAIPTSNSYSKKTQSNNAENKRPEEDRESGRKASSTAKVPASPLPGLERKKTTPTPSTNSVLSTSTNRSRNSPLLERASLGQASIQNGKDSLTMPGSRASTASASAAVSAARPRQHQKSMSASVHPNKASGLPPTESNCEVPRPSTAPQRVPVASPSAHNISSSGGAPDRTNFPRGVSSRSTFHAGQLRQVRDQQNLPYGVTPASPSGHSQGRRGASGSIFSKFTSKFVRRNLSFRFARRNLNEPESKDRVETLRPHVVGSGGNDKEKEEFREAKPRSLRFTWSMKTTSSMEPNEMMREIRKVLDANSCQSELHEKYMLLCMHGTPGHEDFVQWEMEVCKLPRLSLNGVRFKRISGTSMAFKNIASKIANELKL
CDK1/Cyclin A (Homo sapiens), sequence (P06493 whole entry, looked up, canonical isoform): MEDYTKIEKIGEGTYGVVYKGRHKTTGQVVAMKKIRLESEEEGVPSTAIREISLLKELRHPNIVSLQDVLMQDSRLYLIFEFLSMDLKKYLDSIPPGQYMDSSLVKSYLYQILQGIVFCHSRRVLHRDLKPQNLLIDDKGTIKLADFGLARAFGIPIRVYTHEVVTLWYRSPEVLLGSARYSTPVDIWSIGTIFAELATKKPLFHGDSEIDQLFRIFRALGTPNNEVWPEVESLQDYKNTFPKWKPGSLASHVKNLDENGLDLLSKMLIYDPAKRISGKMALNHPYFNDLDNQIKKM
CDK1/Cyclin A (Homo sapiens), sequence (P20248 whole entry, looked up, canonical isoform): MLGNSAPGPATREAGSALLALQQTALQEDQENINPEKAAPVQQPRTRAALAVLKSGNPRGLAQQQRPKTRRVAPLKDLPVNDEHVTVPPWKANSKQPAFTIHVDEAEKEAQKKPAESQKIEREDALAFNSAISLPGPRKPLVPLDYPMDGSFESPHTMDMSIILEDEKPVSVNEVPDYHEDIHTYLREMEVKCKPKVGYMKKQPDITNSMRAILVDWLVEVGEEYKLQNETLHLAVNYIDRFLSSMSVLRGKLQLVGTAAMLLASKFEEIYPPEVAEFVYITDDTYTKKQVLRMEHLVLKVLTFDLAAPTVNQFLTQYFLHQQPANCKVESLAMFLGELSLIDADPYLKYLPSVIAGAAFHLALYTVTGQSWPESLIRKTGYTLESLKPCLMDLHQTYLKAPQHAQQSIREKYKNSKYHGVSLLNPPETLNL
Serine/threonine-protein kinase N3 (Homo sapiens), sequence (Q6P5Z2 whole entry, looked up): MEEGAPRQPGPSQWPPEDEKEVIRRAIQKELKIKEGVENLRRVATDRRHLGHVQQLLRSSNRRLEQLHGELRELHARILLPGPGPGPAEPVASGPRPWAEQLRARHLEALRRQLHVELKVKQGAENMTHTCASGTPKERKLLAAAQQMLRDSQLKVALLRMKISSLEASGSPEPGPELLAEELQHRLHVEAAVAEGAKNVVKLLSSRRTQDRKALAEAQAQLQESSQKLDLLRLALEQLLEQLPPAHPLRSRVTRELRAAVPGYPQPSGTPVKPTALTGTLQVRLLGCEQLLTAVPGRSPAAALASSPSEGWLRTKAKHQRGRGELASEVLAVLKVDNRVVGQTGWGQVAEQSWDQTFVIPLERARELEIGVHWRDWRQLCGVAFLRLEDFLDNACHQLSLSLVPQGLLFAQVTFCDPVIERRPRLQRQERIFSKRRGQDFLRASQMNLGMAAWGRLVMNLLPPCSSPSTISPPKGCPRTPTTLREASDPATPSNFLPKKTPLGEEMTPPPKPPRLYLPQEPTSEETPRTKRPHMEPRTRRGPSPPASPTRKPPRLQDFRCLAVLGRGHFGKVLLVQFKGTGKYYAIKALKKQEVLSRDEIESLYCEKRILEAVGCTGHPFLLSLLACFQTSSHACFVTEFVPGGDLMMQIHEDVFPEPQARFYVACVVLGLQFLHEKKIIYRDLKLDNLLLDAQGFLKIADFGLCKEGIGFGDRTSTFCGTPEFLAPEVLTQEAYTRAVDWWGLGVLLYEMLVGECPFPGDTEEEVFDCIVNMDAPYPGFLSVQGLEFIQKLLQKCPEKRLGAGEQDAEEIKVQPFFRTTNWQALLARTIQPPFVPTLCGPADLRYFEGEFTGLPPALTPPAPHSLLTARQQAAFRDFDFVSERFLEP
cAMP-dependent protein kinase catalytic subunit gamma (Homo sapiens), sequence (P22612 2-351 limits assumed): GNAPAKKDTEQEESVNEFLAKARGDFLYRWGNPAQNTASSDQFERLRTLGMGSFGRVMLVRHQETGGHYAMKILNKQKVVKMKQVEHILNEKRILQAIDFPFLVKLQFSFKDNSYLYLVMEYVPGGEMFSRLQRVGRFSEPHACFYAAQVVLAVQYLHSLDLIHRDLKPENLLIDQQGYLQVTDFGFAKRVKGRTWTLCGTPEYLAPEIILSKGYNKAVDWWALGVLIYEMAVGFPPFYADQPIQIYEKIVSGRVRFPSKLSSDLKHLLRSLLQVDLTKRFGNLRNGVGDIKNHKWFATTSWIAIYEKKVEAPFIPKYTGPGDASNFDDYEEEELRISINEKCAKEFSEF

Row | inhibition [1] [%] | inhibition [2] [%] | inhibition [3] [%] | inhibition [4] [%] | inhibition [5] [%] | inhibition [6] [%] | inhibition [7] [%] | inhibition [8] [%] | SMILES
1 | 69.6 | 10.9 | 28.3 | 9.35 | 100 | 34.2 | 35.1 | 9.88 | CS(=O)(=O)c1cccc(Nc2nccc(-c3sc(N4CCOCC4)nc3-c3cccc(NS(=O)(=O)c4c(F)cccc4F)c3)n2)c1
2 | -7.32 | 2.7 | 17.9 | 0.62 | 84.4 | -6.11 | 7.23 | 19.7 | COCCNC(=O)c1ccc2c(c1)nc(-c1cnc(-c3ccc(Cl)cc3)[nH]1)n2CCOC
3 | -8.74 | 3.84 | 31.5 | 78.7 | 95.7 | 7.46 | 6.78 | 19.8 | CC(C)(C)c1cc(NC(=O)Nc2ccc(Oc3ccncc3)cc2)no1
